Experimental findings from publication PMC3936431 (Biomolecules & Therapeutics, 2014) are described below.

Molecules are shown by their SMILES.

Series [1] is described as follows: Pharmacokinetic studies after single intravenous or rectal administration. To be noted: for Tmax / AUC(0-inf) / AUC(0-t): New Zealand white, rabbit, in vivo; for AUC(0-inf): AUC0-∞; for AUC(0-inf) / AUC(0-t) / AUC0-∞ / AUC0–30h: rabbits, plasma; for AUC(0-t): AUC0–30h.
Series [2] in a line: Stability in stock solutions and plasma samples. The series is classed as physicochemical, rabbits. Particulars: for stock solution stability, mean %change: room temperature 12 h and 4°C 30 days.
Series [3] in a line: In vitro release, USP paddle method, phosphate buffer pH 7.4. The series is classed as physicochemical. Particulars: in the first 30 min; paddle 100 rpm, phosphate buffer pH 7.4, 37°C.
The mark [4] stands for this setting: 100 mg/kg, rectal administration (suppository).
The mark [5] stands for this setting: iv, 50 mg/kg, intravenous administration.
Where [6] appears, read: intravenous administration, 50 mg/kg.
[7] abbreviates: rectal administration (suppository), 100 mg/kg.

Regarding `CCc1c2c(nc3ccc(OC(=O)N4CCC(N5CCCCC5)CC4)cc13)-c1cc3c(c(=O)n1C2)COC(=O)[C@]3(O)CC` [irinotecan, 7-ethyl-10-[4-(1-piperidino)-1-piperidino]-carbonyloxy-camptothecin], the Tmax came to 4 h in series [1] (100 mg/kg) and 0.25 h in series [1] (iv, 50 mg/kg). Also, the AUC(0-inf) was found to be 41600 ± 7200 ng·h/mL in series [1] (setting [4]) and 82300 ± 9500 ng·h/mL in series [1] (setting [5]). Also, the AUC(0-t) in series [1] (setting [4]) turned out to be 32200 ± 6200 ng·h/mL; in series [1] (setting [5]), 71300 ± 8800 ng·h/mL. The “AUC0-∞” value in series [1] (setting [6]) was 82330 ± 9470 ng·h/mL; in series [1] (setting [7]) it was 41620 ± 7240 ng·h/mL. In addition, the entries for the “AUC0–30h” value in series [1] (setting [6]) and in series [1] (setting [7]) were 71310 ± 8750 ng·h/mL and 32150 ± 6150 ng·h/mL, respectively. The stock solution stability entry in series [2] (4°C for 30 days) and in series [2] (room temperature for 12 h) was “stable” in each case. The “stock solution stability, mean %change” value in series [2] is less than 7.7%. Further, the drug released in series [3] came out at 95%.
Consider `CC[C@@]1(O)C(=O)OCc2c1cc1n(c2=O)Cc2cc3ccccc3nc2-1` [IS, camptothecin], for which the stock solution stability result in series [2] (4°C for 30 days) and in series [2] (room temperature for 12 h) was “stable” each time. The “stock solution stability, mean %change” value in series [2] is given as less than 7.7%.

As a reminder, the Tmax is the time at which the peak concentration occurs. In general, AUC(0-inf) refers to total exposure, with the tail of the curve extrapolated. What is called AUC(0-t) is exposure summed from dosing to a finite time, without extrapolation to infinity. Low readings indicate low exposure, high ones high exposure.
